In article doi:10.64898/2025.12.21.695763v2 (biorxiv, 2026):

Target: T1, Mth α-subunit (NrdE) of Class Ib ribonucleotide reductase (Mycolicibacterium thermoresistibile, UniProt G7CEK2)
T1 sequence (G7CEK2 1-693): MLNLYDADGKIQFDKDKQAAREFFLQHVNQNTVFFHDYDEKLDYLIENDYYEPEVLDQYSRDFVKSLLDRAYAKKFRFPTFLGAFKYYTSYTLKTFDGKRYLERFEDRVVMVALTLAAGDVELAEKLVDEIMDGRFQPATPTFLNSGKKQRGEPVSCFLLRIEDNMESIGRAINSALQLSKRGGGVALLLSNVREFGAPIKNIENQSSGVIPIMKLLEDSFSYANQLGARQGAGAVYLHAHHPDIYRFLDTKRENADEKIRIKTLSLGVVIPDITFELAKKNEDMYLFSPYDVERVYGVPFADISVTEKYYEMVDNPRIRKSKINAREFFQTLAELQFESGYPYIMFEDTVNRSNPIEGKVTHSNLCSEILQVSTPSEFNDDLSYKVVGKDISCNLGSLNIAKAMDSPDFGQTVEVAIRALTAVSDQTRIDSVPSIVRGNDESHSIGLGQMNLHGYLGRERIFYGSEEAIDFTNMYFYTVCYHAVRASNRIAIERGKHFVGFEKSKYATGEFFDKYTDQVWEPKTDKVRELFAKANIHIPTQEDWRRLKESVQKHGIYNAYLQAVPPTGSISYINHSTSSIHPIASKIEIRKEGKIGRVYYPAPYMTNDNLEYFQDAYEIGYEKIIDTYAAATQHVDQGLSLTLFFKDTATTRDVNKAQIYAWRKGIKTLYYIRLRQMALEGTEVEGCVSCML
Test: isothermal titration calorimetry
Format: binding

SMILES | Kd
Cc1cn([C@@H]2O[C@H](COP(=O)(O)OP(=O)(O)OP(=O)(O)O)[C@@H](O)[C@H]2O)c(=O)[nH]c1=O [TTP] | 0.64 µM
Nc1ncnc2c1ncn2[C@H]1C[C@H](O)[C@@H](COP(=O)(O)OP(=O)(O)OP(=O)(O)O)O1 [dATP] | 1.1 µM
Nc1ccn([C@H]2C[C@H](O)[C@@H](COP(=O)(O)OP(=O)(O)OP(=O)(O)O)O2)c(=O)n1 [dCTP] | 6.6 µM

The remaining lines, values ahead:

Kd | SMILES
4.6 µM | Nc1nc2c(ncn2[C@H]2C[C@H](O)[C@@H](COP(=O)(O)OP(=O)(O)OP(=O)(O)O)O2)c(=O)[nH]1 [dGTP]
3.3 µM | Cc1cn([C@H]2C[C@H](O)[C@@H](COP(=O)(O)OP(=O)(O)OP(=O)(O)O)O2)c(=O)[nH]c1=O [dTTP]
